Source: patent US20260265329A1, “POLYPEPTIDE AND DERIVATIVE THEREOF, COMPOSITION, AND USE THEREOF” (HANGZHOU SCIWIND BIOSCIENCES CO., LTD., priority 2023, published 2026)
Starred links: 1 amine or outer side, 2 acyl side, 3 side chain; linkers in the order of their positions; H or OH if unused. Non-standard residues stand in square brackets, D forms with d. Residues, ends and D or L forms follow the SMILES beside them. *: point of attachment. C20 diacid = O=C(O)CCCCCCCCCCCCCCCCCCC(=O)*; C16 diacid = O=C(O)CCCCCCCCCCCCCCC(=O)*; γGlu = O=C(O)[C@H](CCC(=O)[*:2])N[*:1]; βAsp = O=C(O)[C@H](CC(=O)[*:2])N[*:1]; Hyp = O=C(O)[C@@H]1C[C@@H](O)CN1; Trx = NC[C@H]1CC[C@H](C(=O)O)CC1; AEEA = NCCOCCOCC(=O)O

Target: T1, human amylin receptors (Homo sapiens, UniProt O60896+P30988)
T1 construct: host or cells: CHO-K1/Ga15/AMY3 cells, further stably transfected with a CRE-luciferase plasmid
T1 sequence (P30988 25-474): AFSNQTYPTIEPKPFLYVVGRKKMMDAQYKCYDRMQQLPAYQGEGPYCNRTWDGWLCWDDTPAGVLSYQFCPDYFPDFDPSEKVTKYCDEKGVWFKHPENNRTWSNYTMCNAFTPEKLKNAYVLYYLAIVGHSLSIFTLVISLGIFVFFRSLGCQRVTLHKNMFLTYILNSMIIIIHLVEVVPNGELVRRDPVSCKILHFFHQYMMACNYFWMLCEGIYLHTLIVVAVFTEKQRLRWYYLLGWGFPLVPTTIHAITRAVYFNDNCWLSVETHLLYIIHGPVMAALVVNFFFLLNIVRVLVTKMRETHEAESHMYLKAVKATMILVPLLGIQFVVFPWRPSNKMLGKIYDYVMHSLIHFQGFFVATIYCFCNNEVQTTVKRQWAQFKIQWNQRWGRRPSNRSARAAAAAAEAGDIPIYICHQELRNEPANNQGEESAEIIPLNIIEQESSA
T1 sequence (O60896 24-148 partner): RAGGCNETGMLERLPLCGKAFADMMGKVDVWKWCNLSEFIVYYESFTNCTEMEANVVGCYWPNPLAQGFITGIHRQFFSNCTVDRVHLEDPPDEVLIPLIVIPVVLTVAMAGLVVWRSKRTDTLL
Assay: Luciferase assay in stably transfected amylin receptor/CRE-luc CHO cell line
Type: cell-based
Conditions: for Relative activity: EC50 ratio of Cagrilintide to the compound, Cagrilintide 100%; for EC50: amylin receptor/CRE-luc CHO cells, 24 hours incubation, luminescence
Description: The objective of this assay is to test the potency of derivatives of polypeptides of the present application on human amylin receptors in vitro using a luciferase assay. Using the standard protocol, CHO-K1/Ga15/AMY3 cells (purchased from GenScript, with the calcitonin receptor and the receptor activity modifying peptide (RAMP) constructed already) were transfected with a plasmid containing a luciferase expression cassette driven by multiple copies of cAMP response elements (CREs). The cells were cultured in an F12 medium containing 200 μg/mL Zeocin, 2 μg/mL puromycin, 100 μg/mL hygromycin, and 400 μg/mL G418 to afford a stably transfected amylin receptor/CRE-luc cell line. The lyophilized powder from Example 1 was dissolved in 20 mM phosphate buffer solution with a pH of 7.0, and diluted in a growth medium (F12 culture medium containing 10% FBS) to give a derivative sample with an initial concentration of 10 nM, which was then subjected to a 5-fold serial dilution in the growth medium to obtain seven samples with concentrations between […]. In each well of a white 96-well plate, 50 μL of the tested sample solution was added with a corresponding concentration. The stably transfected amylin receptor/CRE-luc CHO cells were resuspended in the growth medium at a certain density, and 50 μL of the cell suspension was added at a density of about 20000 cells per well to the white 96-well plate containing the tested sample solution. After incubation of 24 hours at 37° C. and 5% CO2, 100 μL of a Luciferase substrate was added to each well, incubated for 3 minutes, and finally was tested for luminescence on SpectraMax L (Molecular Devices) with the software SoftMax Pro 7.0.3 GxP.

| Structure (SMILES) | Relative activity | EC50 |
| --- | --- | --- |
| CC[C@H](C)[C@H](NC(=O)[C@@H]1CCCN1C(=O)[C@H](CCCCN)NC(=O)[C@H](CC(C)C)NC(=O)[C@H](CC(N)=O)NC(=O)[C@H](CC(N)=O)NC(=O)[C@H](CO)NC(=O)[C@H](CO)NC(=O)[C@H](Cc1c[nH]cn1)NC(=O)[C@H](CCCNC(=N)N)NC(=O)[C@H](CC(C)C)NC(=O)[C@H](Cc1ccccc1)NC(=O)[C@H](CC(=O)O)NC(=O)[C@H](C)NC(=O)[C@H](CC(C)C)NC(=O)[C@H](CCCNC(=N)N)NC(=O)CNC(=O)[C@H](CC(C)C)NC(=O)[C@H](C)NC(=O)[C@H](C)NC(=O)[C@@H](NC(=O)[C@H](CO)NC(=O)[C@H](CC(C)C)NC(=O)[C@H](CCC(=O)O)NC(=O)[C@H](CO)NC(=O)[C@H](C)NC(=O)CC[C@H](NC(=O)CCCCCCCCCCCCCCCCCCC(=O)O)C(=O)O)[C@@H](C)O)C(=O)N[C@@H](CC(C)C)C(=O)N1CCC[C@H]1C(=O)N1CCC[C@H]1C(=O)N[C@H](C(=O)N[C@@H](CC(N)=O)C(=O)N[C@H](C(=O)NCC(=O)N[C@@H](CO)C(=O)N[C@@H](CC(N)=O)C(=O)N[C@H](C(=O)N1C[C@H](O)C[C@H]1C(N)=O)[C@@H](C)O)C(C)C)[C@@H](C)O [M1] ({C20 diacid-γGlu}-ASELSTAALGRLADFLRHSSNNLKPILPPTNVGSNT[Hyp]-NH2) | 49% | 0.053 nM |
| CC[C@H](C)[C@H](NC(=O)[C@@H]1CCCN1C(=O)[C@H](CCCCN)NC(=O)[C@H](CC(C)C)NC(=O)[C@H](CC(N)=O)NC(=O)[C@H](CC(N)=O)NC(=O)[C@H](CO)NC(=O)[C@H](CO)NC(=O)[C@H](Cc1c[nH]cn1)NC(=O)[C@H](CCCNC(=N)N)NC(=O)[C@H](CC(C)C)NC(=O)[C@H](Cc1ccccc1)NC(=O)[C@H](CC(=O)O)NC(=O)[C@H](C)NC(=O)[C@H](CC(C)C)NC(=O)[C@H](CCCNC(=N)N)NC(=O)[C@H](CCC(N)=O)NC(=O)[C@@H](NC(=O)[C@H](C)NC(=O)[C@H](C)NC(=O)[C@@H](NC(=O)[C@H](CO)NC(=O)[C@H](CC(C)C)NC(=O)[C@H](CCC(N)=O)NC(=O)[C@H](CO)NC(=O)[C@H](C)NC(=O)COCCOCCNC(=O)COCCOCCNC(=O)[C@H]1CC[C@H](CNC(=O)CCCCCCCCCCCCCCCCCCC(=O)O)CC1)[C@@H](C)O)[C@@H](C)O)C(=O)N[C@@H](CC(C)C)C(=O)N1CCC[C@H]1C(=O)N1CCC[C@H]1C(=O)N[C@H](C(=O)N[C@@H](CC(N)=O)C(=O)N[C@H](C(=O)NCC(=O)N[C@@H](CO)C(=O)N[C@@H](CC(N)=O)C(=O)N[C@H](C(=O)N1C[C@H](O)C[C@H]1C(N)=O)[C@@H](C)O)C(C)C)[C@@H](C)O [M35] ({C20 diacid-Trx-AEEA-AEEA}-ASQLSTAATQRLADFLRHSSNNLKPILPPTNVGSNT[Hyp]-NH2) | 124% |  |
| CC[C@H](C)[C@H](NC(=O)[C@@H]1CCCN1C(=O)[C@H](CCCCN)NC(=O)[C@H](CC(C)C)NC(=O)[C@H](CC(N)=O)NC(=O)[C@H](CC(N)=O)NC(=O)[C@H](CO)NC(=O)[C@H](CO)NC(=O)[C@H](Cc1c[nH]cn1)NC(=O)[C@H](CCCNC(=N)N)NC(=O)[C@H](CC(C)C)NC(=O)[C@H](Cc1ccccc1)NC(=O)[C@H](CC(=O)O)NC(=O)[C@H](C)NC(=O)[C@H](CC(C)C)NC(=O)[C@H](CCCNC(=N)N)NC(=O)[C@H](CCC(N)=O)NC(=O)[C@@H](NC(=O)[C@H](C)NC(=O)[C@H](C)NC(=O)[C@@H](NC(=O)[C@H](CO)NC(=O)[C@H](CC(C)C)NC(=O)[C@H](CCC(N)=O)NC(=O)[C@H](CO)NC(=O)[C@H](C)NC(=O)COCCOCCNC(=O)COCCOCCNC(=O)C[C@H](NC(=O)CCCCCCCCCCCCCCCCCCC(=O)O)C(=O)O)[C@@H](C)O)[C@@H](C)O)C(=O)N[C@@H](CC(C)C)C(=O)N1CCC[C@H]1C(=O)N1CCC[C@H]1C(=O)N[C@H](C(=O)N[C@@H](CC(N)=O)C(=O)N[C@H](C(=O)NCC(=O)N[C@@H](CO)C(=O)N[C@@H](CC(N)=O)C(=O)N[C@H](C(=O)N1C[C@H](O)C[C@H]1C(N)=O)[C@@H](C)O)C(C)C)[C@@H](C)O [M33] ({C20 diacid-βAsp-AEEA-AEEA}-ASQLSTAATQRLADFLRHSSNNLKPILPPTNVGSNT[Hyp]-NH2) | 37% | 0.145 nM |
| CC[C@H](C)[C@H](NC(=O)[C@H](CC(=O)O)NC(=O)[C@H](CCCNC(=N)N)NC(=O)[C@H](CC(=O)O)NC(=O)[C@H](CCCNC(=N)N)NC(=O)[C@H](CC(=O)O)NC(=O)[C@@H](NC(=O)[C@H](Cc1ccccc1)NC(=O)[C@H](Cc1c[nH]cn1)NC(=O)[C@H](CCCNC(=N)N)NC(=O)[C@H](CC(C)C)NC(=O)[C@H](Cc1ccccc1)NC(=O)[C@H](CC(=O)O)NC(=O)[C@H](C)NC(=O)[C@H](CC(C)C)NC(=O)[C@H](CCCNC(=N)N)NC(=O)CNC(=O)[C@H](CC(C)C)NC(=O)[C@H](C)NC(=O)[C@H](C)NC(=O)[C@@H](NC(=O)[C@H](CO)NC(=O)[C@H](CC(C)C)NC(=O)[C@H](CCC(=O)O)NC(=O)[C@H](CO)NC(=O)[C@H](C)NC(=O)CC[C@H](NC(=O)CCCCCCCCCCCCCCCCCCC(=O)O)C(=O)O)[C@@H](C)O)[C@@H](C)O)C(=O)N[C@@H](CC(C)C)C(=O)N1CCC[C@H]1C(=O)N1CCC[C@H]1C(=O)N[C@H](C(=O)N[C@@H](CC(N)=O)C(=O)N[C@H](C(=O)NCC(=O)N[C@@H](CO)C(=O)N[C@@H](CC(N)=O)C(=O)N[C@H](C(=O)N1CCC[C@H]1C(N)=O)[C@@H](C)O)C(C)C)[C@@H](C)O [M3] ({C20 diacid-γGlu}-ASELSTAALGRLADFLRHFTDRDRDILPPTNVGSNTP-NH2) | 32% | 0.081 nM |
| CC[C@H](C)[C@H](NC(=O)[C@H](CC(=O)O)NC(=O)[C@H](CCCNC(=N)N)NC(=O)[C@H](CC(=O)O)NC(=O)[C@H](CCCNC(=N)N)NC(=O)[C@H](CC(=O)O)NC(=O)[C@@H](NC(=O)[C@H](Cc1ccccc1)NC(=O)[C@H](Cc1c[nH]cn1)NC(=O)[C@H](CCCNC(=N)N)NC(=O)[C@H](CC(C)C)NC(=O)[C@H](Cc1ccccc1)NC(=O)[C@H](CC(=O)O)NC(=O)[C@H](C)NC(=O)[C@H](CC(C)C)NC(=O)[C@H](CCCNC(=N)N)NC(=O)[C@H](CCC(N)=O)NC(=O)[C@@H](NC(=O)[C@H](C)NC(=O)[C@H](C)NC(=O)[C@@H](NC(=O)[C@H](CO)NC(=O)[C@H](CC(C)C)NC(=O)[C@H](CCC(N)=O)NC(=O)[C@H](CO)NC(=O)[C@H](C)NC(=O)COCCOCCNC(=O)COCCOCCNC(=O)[C@H](CC(=O)O)NC(=O)CCCCCCCCCCCCCCCCCCC(=O)O)[C@@H](C)O)[C@@H](C)O)[C@@H](C)O)C(=O)N[C@@H](CC(C)C)C(=O)N1CCC[C@H]1C(=O)N1CCC[C@H]1C(=O)N[C@H](C(=O)N[C@@H](CC(N)=O)C(=O)N[C@H](C(=O)NCC(=O)N[C@@H](CO)C(=O)N[C@@H](CC(N)=O)C(=O)N[C@H](C(=O)N1CCC[C@H]1C(N)=O)[C@@H](C)O)C(C)C)[C@@H](C)O [M19] ({C20 diacid}-D[AEEA][AEEA]ASQLSTAATQRLADFLRHFTDRDRDILPPTNVGSNTP-NH2) | 80% | 0.036 nM |
| CC[C@H](C)[C@H](NC(=O)[C@@H]1CCCN1C(=O)[C@H](CCCCN)NC(=O)[C@H](CC(C)C)NC(=O)[C@H](CC(N)=O)NC(=O)[C@H](CC(N)=O)NC(=O)[C@H](CO)NC(=O)[C@H](CO)NC(=O)[C@H](Cc1c[nH]cn1)NC(=O)[C@H](CCCNC(=N)N)NC(=O)[C@H](CC(C)C)NC(=O)[C@H](Cc1ccccc1)NC(=O)[C@H](CC(=O)O)NC(=O)[C@H](C)NC(=O)[C@H](CC(C)C)NC(=O)[C@H](CCCNC(=N)N)NC(=O)[C@H](CCC(N)=O)NC(=O)[C@@H](NC(=O)[C@H](C)NC(=O)[C@H](C)NC(=O)[C@@H](NC(=O)[C@H](CO)NC(=O)[C@H](CC(C)C)NC(=O)[C@H](CCC(N)=O)NC(=O)[C@H](CO)NC(=O)[C@H](C)NC(=O)CC[C@H](NC(=O)CCCCCCCCCCCCCCC(=O)O)C(=O)O)[C@@H](C)O)[C@@H](C)O)C(=O)N[C@@H](CC(C)C)C(=O)N1CCC[C@H]1C(=O)N1CCC[C@H]1C(=O)N[C@H](C(=O)N[C@@H](CC(N)=O)C(=O)N[C@H](C(=O)NCC(=O)N[C@@H](CO)C(=O)N[C@@H](CC(N)=O)C(=O)N[C@H](C(=O)N1C[C@H](O)C[C@H]1C(N)=O)[C@@H](C)O)C(C)C)[C@@H](C)O [M38] ({C16 diacid-γGlu}-ASQLSTAATQRLADFLRHSSNNLKPILPPTNVGSNT[Hyp]-NH2) | 181% | 0.03 nM |
